Measured values published in PMC6328172, “5-HT2 receptor binding, functional activity and selectivity in N-benzyltryptamines” (PLoS ONE, 2019).
Read-outs that look alike come from different tables or passages of the source.

Tests used:
human 5-HT2C receptor [1] = target: T1, human 5-HT2C receptor (Homo sapiens, UniProt P28335); assay: Ca2+ mobilization in HeLa h5-HT2C cells; format: cell-based; details: for EC50: no unit in the table, nM; for Emax: HeLa, read-out: 5-HT2C % Emax; for Selectivity 5-HT2C/2A (functional, in parentheses): from EC50 values, Table 2
T1 construct: expressed in transfected cells; host or cells: HeLa (HeLa-5-HT2C cell line)
T1 sequence (P28335 33-458): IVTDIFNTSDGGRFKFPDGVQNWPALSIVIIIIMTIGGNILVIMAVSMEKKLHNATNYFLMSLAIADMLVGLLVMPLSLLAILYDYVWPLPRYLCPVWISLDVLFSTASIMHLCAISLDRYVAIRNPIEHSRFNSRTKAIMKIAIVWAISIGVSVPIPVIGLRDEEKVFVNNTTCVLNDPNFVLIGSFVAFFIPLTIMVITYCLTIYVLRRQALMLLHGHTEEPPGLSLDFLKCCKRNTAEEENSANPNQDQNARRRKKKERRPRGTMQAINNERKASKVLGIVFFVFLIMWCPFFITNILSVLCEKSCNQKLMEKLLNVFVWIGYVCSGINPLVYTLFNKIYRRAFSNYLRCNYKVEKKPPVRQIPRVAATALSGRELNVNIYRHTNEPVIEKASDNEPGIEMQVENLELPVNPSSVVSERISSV

human 5-HT2A receptor [2] = target: T2, human 5-HT2A receptor (Homo sapiens, UniProt P28223); assay: Competition binding to the human 5-HT2A receptor ([3H]ketanserin, CHO-5-HT2A membranes); details: for Selectivity 5-HT2A/2C (binding): from Ki values, Table 1; for Ki: human receptor, [3H]ketanserin displacement
T2 construct: expressed in transfected cells; host or cells: CHO (CHO-5-HT2A cell line)

human 5-HT2B receptor = human 5-HT2B receptor (Homo sapiens, UniProt P41595); assay: Competition binding to the human 5-HT2B receptor ([3H]LSD, CHO-5-HT2B membranes)
human 5-HT2A receptor [3] = target: T2, human 5-HT2A receptor; assay: Ca2+ mobilization in CHO h5-HT2A cells; format: cell-based; details: for Selectivity 5-HT2A/2C (functional): from EC50 values, Table 2; for Emax: relative efficacy, % of response to 5-HT
human 5-HT2C receptor [4] = target: T1, human 5-HT2C receptor; assay: Competition binding to the human 5-HT2C receptor ([3H]mesulergine, HeLa-5-HT2C membranes); details: for Selectivity 5-HT2C/2A (binding, in parentheses): from Ki values, Table 1; for Ki: human receptor, [3H]mesulergine displacement, no unit in the table, nM, read-out: 5-HT2C Ki (in parentheses) (converted)
[5] = Ca2+ mobilization, read-out: 5-HT2C EC50 (in parentheses) (converted)
[6] = no unit in the table, nM, read-out: 5-HT2A Ki (in parentheses) (converted)
[7] = Ca2+ mobilization, no unit in the table, nM, read-out: 5-HT2A EC50 (in parentheses) (converted)
[8] = Ca2+ mobilization, pEC50 ± SEM, read-out: 5-HT2A pEC50 (converted)

T2 sequence (P28223 whole entry): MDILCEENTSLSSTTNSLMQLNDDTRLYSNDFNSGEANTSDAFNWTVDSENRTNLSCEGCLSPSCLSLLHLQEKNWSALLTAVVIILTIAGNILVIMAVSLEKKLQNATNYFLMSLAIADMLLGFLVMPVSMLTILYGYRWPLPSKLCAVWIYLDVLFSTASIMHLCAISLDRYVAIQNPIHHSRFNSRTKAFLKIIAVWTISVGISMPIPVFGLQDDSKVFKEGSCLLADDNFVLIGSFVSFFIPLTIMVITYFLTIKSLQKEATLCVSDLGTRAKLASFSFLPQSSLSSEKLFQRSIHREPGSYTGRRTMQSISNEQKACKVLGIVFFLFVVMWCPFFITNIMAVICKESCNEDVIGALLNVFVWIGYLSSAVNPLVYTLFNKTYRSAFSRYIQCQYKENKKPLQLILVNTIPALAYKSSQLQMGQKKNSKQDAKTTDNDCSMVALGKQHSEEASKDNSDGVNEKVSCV
human 5-HT2B receptor, sequence (P41595 whole entry): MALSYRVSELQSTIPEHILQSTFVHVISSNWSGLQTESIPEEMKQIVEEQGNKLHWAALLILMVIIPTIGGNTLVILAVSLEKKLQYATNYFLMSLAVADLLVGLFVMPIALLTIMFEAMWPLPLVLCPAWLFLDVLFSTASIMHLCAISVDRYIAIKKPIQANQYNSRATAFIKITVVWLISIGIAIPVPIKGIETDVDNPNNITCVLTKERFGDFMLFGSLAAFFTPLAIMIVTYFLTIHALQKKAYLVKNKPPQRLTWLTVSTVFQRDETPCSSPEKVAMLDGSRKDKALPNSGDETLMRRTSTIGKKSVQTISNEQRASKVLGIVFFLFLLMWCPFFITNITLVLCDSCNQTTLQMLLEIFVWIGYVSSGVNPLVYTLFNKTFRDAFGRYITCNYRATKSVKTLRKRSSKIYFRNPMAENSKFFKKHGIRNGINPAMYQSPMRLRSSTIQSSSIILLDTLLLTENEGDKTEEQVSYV

| SMILES | EC50 (human 5-HT2C receptor [1]; [5]) | Emax (human 5-HT2C receptor [1]) | Selectivity 5-HT2C/2A (functional, in parentheses) (human 5-HT2C receptor [1]) | Selectivity 5-HT2A/2C (binding) (human 5-HT2A receptor [2]) | Ki (human 5-HT2A receptor [2]; [6]) | Ki (human 5-HT2B receptor) | EC50 (human 5-HT2A receptor [3]; [7]) | Selectivity 5-HT2A/2C (functional) (human 5-HT2A receptor [3]) | Emax (human 5-HT2A receptor [3]) | Selectivity 5-HT2C/2A (binding, in parentheses) (human 5-HT2C receptor [4]) | Ki (human 5-HT2C receptor [4]) | functional activity at h5-HT2A receptor (in words) (human 5-HT2A receptor [3]; Ca2+ mobilization) | EC50 (human 5-HT2C receptor [1]; 5-HT2C EC50 (in parentheses), Ca2+ mobilization) | times less potent than lorcaserin (human 5-HT2C receptor [1]; 5-HT2C functional potency) | functional activity at h5-HT2C receptor (in words) (human 5-HT2C receptor [1]; Ca2+ mobilization) | 5-HT2A pEC50 (human 5-HT2A receptor [3]; Ca2+ mobilization, pEC50 ± SEM) | EC50 (human 5-HT2A receptor [3]; [8]) | Ki (human 5-HT2A receptor [2]; read-out: 5-HT2A pKi ± S.E.M. (converted)) |
| --- | --- | --- | --- | --- | --- | --- | --- | --- | --- | --- | --- | --- | --- | --- | --- | --- | --- | --- |
| CCOc1ccc(CNCCc2c[nH]c3ccccc23)cc1 [Compound 15, N-(4-Ethoxybenzyl)-[2-(1H-indol-3-yl)ethyl]amine] | 11.7 nM | 93.2 ± 3.26% | 30.9 | 2.66 | 275 nM | 269 nM | 363 nM | 0.032 | 36.7 ± 6.13% | 0.36 | 741 nM | – | – | – | – | – | – | – |
| Clc1ccc(CNCCc2c[nH]c3ccccc23)cc1 [Compound 16, N-(4-Chlorobenzyl)-[2-(1H-indol-3-yl)ethyl]amine] | 50.1 nM | 98.3 ± 4.18% | 1.17 | 1.37 | 708 nM | 224 nM | 58.9 nM | 0.85 | 80 ± 4.54% | 0.73 | 955 nM | – | – | – | – | – | – | – |
| Brc1ccc(CNCCc2c[nH]c3ccccc23)cc1 [Compound 17, N-(4-Bromobenzyl)-[2-(1H-indol-3-yl)ethyl]amine] | 6760 nM | 110 ± 4.3% | – | 1.09 | 1000 nM | 263 nM | – | – | – | 0.92 | 1070 nM | too low for quantification | – | – | – | – | – | – |
| COc1cccc(CNCCc2c[nH]c3ccccc23)c1O [Compound 19, N-(2-Hydroxy-3-methoxybenzyl)-[2-(1H-indol-3-yl)ethyl]amine] | 93.3 nM | 107 ± 6.91% | 0.52 | 0.58 | 26.3 nM | 13.2 nM | 49 nM | 1.91 | 26.2 ± 2.34% | 1.72 | 16.6 nM | – | – | – | – | – | – | – |
| Oc1c(Br)cccc1CNCCc1c[nH]c2ccccc12 [Compound 21, N-(3-Bromo-2-hydroxybenzyl)-[2-(1H-indol-3-yl)ethyl]amine] | 27.5 nM | 98.8 ± 2.83% | 575 | 9.8 | 14.1 nM | 15.5 nM | 15800 nM | 0.0017 | 40.4 ± 6.23% | 0.10 | 138 nM | extremely weak h5-HT2A partial agonist | 27 nM | about 3 times | full agonist | 4.80 | 15800 nM | – |
| Oc1c(F)cccc1CNCCc1c[nH]c2ccccc12 [Compound 22, N-(3-Fluoro-2-hydroxybenzyl)-[2-(1H-indol-3-yl)ethyl]amine] | 17 nM | 104 ± 4.96% | 9.55 | 0.82 | 209 nM | 129 nM | 162 nM | 0.105 | 53.6 ± 4.49% | 1.22 | 178 nM | – | – | – | – | – | – | – |
| Cc1ccc(O)c(CNCCc2c[nH]c3ccccc23)c1 [Compound 23, N-(2-Hydroxy-5-methylbenzyl)-[2-(1H-indol-3-yl)ethyl]amine] | 100 nM | 89.4 ± 3.86% | 1.10 | 0.36 | 741 nM | 155 nM | 110 nM | 0.91 | 43.6 ± 0.9% | 2.77 | 269 nM | – | – | – | – | – | – | – |
| Oc1ccc(F)cc1CNCCc1c[nH]c2ccccc12 [Compound 24, N-(5-Fluoro-2-hydroxybenzyl)-[2-(1H-indol-3-yl)ethyl]amine] | 26.3 nM | 105 ± 2.19% | 2.88 | 0.14 | 759 nM | 77.6 nM | 75.9 nM | 0.35 | 71.6 ± 1.95% | 7.15 | 105 nM | – | – | – | – | – | – | 794 nM |
| COc1ccc(F)cc1CNCCc1c[nH]c2ccccc12 [Compound 25, N-(5-Fluoro-2-methoxybenzyl)-[2-(1H-indol-3-yl)ethyl]amine] | 52.5 nM | 110 ± 2.19% | 1.15 | 0.42 | 363 nM | 95.5 nM | 60.3 nM | 0.87 | 58 ± 1.95% | 2.40 | 151 nM | – | – | – | – | – | – | – |
| COc1ccc(Br)cc1CNCCc1c[nH]c2ccccc12 [Compound 27, N-(5-Bromo-2-methoxybenzyl)-[2-(1H-indol-3-yl)ethyl]amine] | 263 nM | 111 ± 4.63% | 67.6 | 0.12 | 1120 nM | 91.2 nM | 17800 nM | 0.015 | 69 ± 3.51% | 8.22 | 135 nM | – | – | – | – | – | 17800 nM | – |
| COc1ccc(Cl)cc1CNCCc1c[nH]c2ccccc12 [Compound 28, N-(5-Chloro-2-methoxybenzyl)-[2-(1H-indol-3-yl)ethyl]amine] | 240 nM | 110 ± 3.35% | 37.2 | 1.35 | 977 nM | 794 nM | 8910 nM | 0.027 | 69.2 ± 2.67% | 0.74 | 1320 nM | – | – | – | – | – | 8910 nM | – |
| COc1ccc(OC)c(CNCCc2c[nH]c3ccccc23)c1 [Compound 29, N-(2,5-Dimethoxybenzyl)-[2-(1H-indol-3-yl)ethyl]amine] | 132 nM | 118 ± 4.45% | 26.3 | 0.26 | 331 nM | 57.5 nM | 3470 nM | 0.038 | 39 ± 0.67% | 3.85 | 87.1 nM | – | – | – | – | – | – | – |
| Oc1cc(Br)ccc1CNCCc1c[nH]c2ccccc12 [Compound 31, N-(4-Bromo-2-hydroxybenzyl)-[2-(1H-indol-3-yl)ethyl]amine] | 813 nM | 74.8 ± 2.6% | 30.2 | 0.38 | 1550 nM | 110 nM | 24500 nM | 0.033 | 62.5 ± 10.8% | 2.63 | 603 nM | – | – | – | – | – | – | – |
| Oc1cccc(Br)c1CNCCc1c[nH]c2ccccc12 [Compound 33, N-(6-Bromo-2-hydroxybenzyl)-[2-(1H-indol-3-yl)ethyl]amine] | 794 nM | 104 ± 2.91% | 7.41 | 0.067 | 1660 nM | 69.2 nM | 5890 nM | 0.13 | 34.4 ± 1.37% | 15 | 112 nM | – | – | – | – | – | – | – |
